Source: patent publication US11453701B2, “Tau aggregation peptide inhibitors” (ADRX, INC., priority 2017, dated 2022)
Values joined by “and” are separate entries in the source; they are usually repeats but may differ in a detail not shown here. Equal entries are not always repeated. Square brackets hold non-standard residues; d marks the D form. Peptide text beside a SMILES is read from it.

Biological target: T1, Tau40 P301L protein (Homo sapiens, UniProt P10636, P618L)
T1 construct: His (N); made in house; host or cells: E. coli BL21
T1 sequence (P10636 1-441 isoform P10636-8 P301L): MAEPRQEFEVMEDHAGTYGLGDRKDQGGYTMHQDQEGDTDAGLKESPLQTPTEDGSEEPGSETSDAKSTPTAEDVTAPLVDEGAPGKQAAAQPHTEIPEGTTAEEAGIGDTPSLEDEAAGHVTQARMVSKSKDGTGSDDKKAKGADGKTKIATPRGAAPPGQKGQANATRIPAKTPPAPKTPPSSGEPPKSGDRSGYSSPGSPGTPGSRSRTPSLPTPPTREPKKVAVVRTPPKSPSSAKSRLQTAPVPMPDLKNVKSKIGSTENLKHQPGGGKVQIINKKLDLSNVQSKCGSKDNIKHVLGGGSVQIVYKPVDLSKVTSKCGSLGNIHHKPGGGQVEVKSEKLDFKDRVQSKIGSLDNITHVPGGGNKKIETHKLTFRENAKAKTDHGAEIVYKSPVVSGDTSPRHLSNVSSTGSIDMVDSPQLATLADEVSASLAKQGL
Assay: Thioflavin T assay of Tau40 amyloid inhibition (Tau40 assay)
Format: biochemical
Settings: Thioflavin T fluorescence, Tau40 P301L 2.5 μM, 10 μM heparin

CC[C@@H](C)[C@@H](NC(=O)[C@@H](Cc1c[nH]cn1)NC(=O)[C@@H](CC(C)C)NC(=O)[C@@H](CCCCN)NC(=O)[C@H](N)Cc1ccccc1)C(=O)N[C@H](CCCNC(=N)N)C(=O)N[C@H](Cc1c[nH]cn1)C(=O)N[C@H](Cc1c[nH]c2ccccc12)C(=O)O [compound 128] (H-[dF][dK][dL][dH][dI][dR][dH][dW]-OH; N-terminus and C-terminus assumed)
IC50: 1.71 µM and 1.76 µM
